pEC50: −log10 of the molar value. Peptide text beside a SMILES is read from it.
Legend:
[1] = biological target: T1, CRF2R (Homo sapiens, UniProt Q13324); assay: CRF2R agonist activation (EC50 / Emax), called comparative CRF binding; assay type: cell-based; conditions: for Emax: read-out: CRF2R Emax; for pEC50: read-out: CRF2R EC50
T1 sequence (Q13324 1-411): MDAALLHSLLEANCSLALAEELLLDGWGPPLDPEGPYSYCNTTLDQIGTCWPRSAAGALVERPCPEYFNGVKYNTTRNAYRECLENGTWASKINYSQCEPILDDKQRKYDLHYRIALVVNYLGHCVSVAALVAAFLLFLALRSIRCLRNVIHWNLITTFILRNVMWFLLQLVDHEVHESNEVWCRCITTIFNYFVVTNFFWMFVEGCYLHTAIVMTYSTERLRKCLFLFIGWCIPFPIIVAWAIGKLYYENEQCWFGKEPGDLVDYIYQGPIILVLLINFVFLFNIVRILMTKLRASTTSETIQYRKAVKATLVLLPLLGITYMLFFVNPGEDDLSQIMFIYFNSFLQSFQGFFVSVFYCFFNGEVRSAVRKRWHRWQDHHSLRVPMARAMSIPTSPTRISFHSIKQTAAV
How it was run: (§1)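 Agonism at each human CRF receptor subtype is inferred from increased cAMP relative to vehicle, using cells expressing that subtype and either lysate cAMP measurement or a cAMP response element reporter.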

[2] = biological target: T2, CRF1R (Homo sapiens, UniProt P34998); assay: CRF1R agonist activation (EC50 / Emax), called comparative CRF binding; assay type: cell-based; conditions: for Emax: read-out: CRF1R Emax; for pEC50: read-out: CRF1R EC50
T2 sequence (P34998 24-415): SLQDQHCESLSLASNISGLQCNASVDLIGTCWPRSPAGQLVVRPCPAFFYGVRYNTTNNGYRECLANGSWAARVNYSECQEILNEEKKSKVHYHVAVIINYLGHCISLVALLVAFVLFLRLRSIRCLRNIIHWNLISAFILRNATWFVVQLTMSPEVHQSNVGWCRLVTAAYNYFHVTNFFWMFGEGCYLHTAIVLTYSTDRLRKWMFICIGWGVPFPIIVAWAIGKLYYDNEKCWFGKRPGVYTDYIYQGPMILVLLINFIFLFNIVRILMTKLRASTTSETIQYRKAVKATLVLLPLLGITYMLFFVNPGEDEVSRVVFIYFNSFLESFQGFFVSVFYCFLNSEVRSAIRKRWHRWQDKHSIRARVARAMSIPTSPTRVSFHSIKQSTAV
How it was run: as §1

Structure (SMILES) | Emax [1] [%] | Emax [2] [%] | pEC50 [1] | pEC50 [2]
CC[C@H](C)[C@H](N)C(=O)N[C@H](C(=O)N[C@@H](CC(C)C)C(=O)N[C@@H](CO)C(=O)N[C@@H](CC(C)C)C(=O)N[C@@H](CC(=O)O)C(=O)N[C@H](C(=O)N1CCC[C@H]1C(=O)N[C@H](C(=O)NCC(=O)N[C@@H](CC(C)C)C(=O)N[C@@H](CC(C)C)C(=O)N[C@@H](CCC(N)=O)C(=O)N[C@H](C(=O)N[C@@H](CC(C)C)C(=O)N[C@@H](CC(C)C)C(=O)N[C@@H](CCC(=O)O)C(=O)N[C@@H](CCC(N)=O)C(=O)N[C@@H](CCC(=O)O)C(=O)N[C@@H](CCCCN)C(=O)N[C@@H](CCC(N)=O)C(=O)N[C@@H](CCCNC(=N)N)C(=O)N[C@@H](C)C(=O)N[C@@H](C)C(=O)N[C@@H](CCCNC(=N)N)C(=O)N[C@@H](CCC(=O)O)C(=O)N[C@@H](CCC(N)=O)C(=O)N[C@@H](C)C(=O)N[C@H](C(=O)N[C@H](C(=O)N[C@@H](CC(N)=O)C(=O)N[C@@H](C)C(=O)N[C@@H](CCCNC(=N)N)C(=O)N[C@H](C(=O)N[C@@H](CC(C)C)C(=O)N[C@@H](C)C(=O)N[C@@H](CCCNC(=N)N)C(=O)N[C@H](C(N)=O)C(C)C)[C@@H](C)CC)[C@@H](C)O)[C@@H](C)O)[C@@H](C)CC)[C@@H](C)CC)C(C)C)C(C)C [compound 115] (H-IVLSLDVPIGLLQILLEQEKQRAAREQATTNARILARV-NH2; N-terminus assumed) | 98 | 7 | – | –
CC[C@H](C)[C@H](N)C(=O)N[C@H](C(=O)N[C@@H](CC(C)C)C(=O)N[C@@H](CO)C(=O)N[C@@H](CC(C)C)C(=O)N[C@@H](CC(=O)O)C(=O)N[C@H](C(=O)N1CCC[C@H]1C(=O)N[C@H](C(=O)NCC(=O)N[C@@H](CC(C)C)C(=O)N[C@@H](CC(C)C)C(=O)N[C@@H](CCC(N)=O)C(=O)N[C@H](C(=O)N[C@@H](CC(C)C)C(=O)N[C@@H](CC(C)C)C(=O)N[C@@H](CCC(=O)O)C(=O)N[C@@H](CCC(N)=O)C(=O)N[C@H](C(=O)N[C@@H](CCCCN)C(=O)N[C@@H](C)C(=O)N[C@@H](CC(N)=O)C(=O)N[C@@H](C)C(=O)N[C@@H](C)C(=O)N[C@@H](CCCNC(=N)N)C(=O)N[C@@H](CCC(=O)O)C(=O)N[C@@H](CCC(N)=O)C(=O)N[C@@H](C)C(=O)N[C@H](C(=O)N[C@H](C(=O)N[C@H](C(=O)N[C@@H](C)C(=O)N[C@@H](CCCNC(=N)N)C(=O)N[C@H](C(=O)N[C@@H](CC(C)C)C(=O)N[C@@H](C)C(=O)N[C@@H](CCCNC(=N)N)C(=O)N[C@H](C(N)=O)C(C)C)[C@@H](C)CC)C(C)C)[C@@H](C)O)[C@@H](C)O)[C@@H](C)O)[C@@H](C)CC)[C@@H](C)CC)C(C)C)C(C)C [compound 116] (H-IVLSLDVPIGLLQILLEQTKANAAREQATTVARILARV-NH2) | 26.4 | 4.8 | – | –
CC[C@H](C)[C@H](N)C(=O)N[C@H](C(=O)N[C@@H](CC(C)C)C(=O)N[C@@H](CO)C(=O)N[C@@H](CC(C)C)C(=O)N[C@@H](CC(=O)O)C(=O)N[C@H](C(=O)N1CCC[C@H]1C(=O)N[C@H](C(=O)NCC(=O)N[C@@H](CC(C)C)C(=O)N[C@@H](CC(C)C)C(=O)N[C@@H](CCC(N)=O)C(=O)N[C@H](C(=O)N[C@@H](CC(C)C)C(=O)N[C@@H](CC(C)C)C(=O)N[C@@H](CCC(=O)O)C(=O)N[C@@H](CCC(N)=O)C(=O)N[C@H](C(=O)N[C@@H](CCCCN)C(=O)N[C@@H](C)C(=O)N[C@@H](CCCNC(=N)N)C(=O)N[C@@H](C)C(=O)N[C@@H](C)C(=O)N[C@@H](CCCNC(=N)N)C(=O)N[C@@H](CCC(=O)O)C(=O)N[C@@H](CCC(N)=O)C(=O)N[C@@H](C)C(=O)N[C@H](C(=O)N[C@H](C(=O)N[C@@H](CC(N)=O)C(=O)N[C@@H](C)C(=O)N[C@@H](CCCNC(=N)N)C(=O)N[C@H](C(=O)N[C@@H](CC(C)C)C(=O)N[C@@H](C)C(=O)N[C@@H](CCCNC(=N)N)C(=O)N[C@H](C(N)=O)C(C)C)[C@@H](C)CC)[C@@H](C)O)[C@@H](C)O)[C@@H](C)O)[C@@H](C)CC)[C@@H](C)CC)C(C)C)C(C)C [compound 117] (H-IVLSLDVPIGLLQILLEQTKARAAREQATTNARILARV-NH2) | 98.8 | 7.8 | – | –
CC[C@H](C)[C@H](N)C(=O)N[C@H](C(=O)N[C@@H](CC(C)C)C(=O)N[C@@H](CO)C(=O)N[C@@H](CC(C)C)C(=O)N[C@@H](CC(=O)O)C(=O)N[C@H](C(=O)N1CCC[C@H]1C(=O)N[C@H](C(=O)NCC(=O)N[C@@H](CC(C)C)C(=O)N[C@@H](CC(C)C)C(=O)N[C@@H](CCC(N)=O)C(=O)N[C@H](C(=O)N[C@@H](CC(C)C)C(=O)N[C@@H](CC(C)C)C(=O)N[C@@H](CCC(=O)O)C(=O)N[C@@H](CCC(N)=O)C(=O)N[C@@H](CCC(=O)O)C(=O)N[C@@H](CCCNC(=N)N)C(=O)N[C@@H](CCC(N)=O)C(=O)N[C@@H](CCC(=O)O)C(=O)N[C@@H](C)C(=O)N[C@@H](C)C(=O)N[C@@H](CCCNC(=N)N)C(=O)N[C@@H](CCC(=O)O)C(=O)N[C@@H](CCC(N)=O)C(=O)N[C@@H](C)C(=O)N[C@H](C(=O)N[C@H](C(=O)N[C@@H](CC(N)=O)C(=O)N[C@@H](C)C(=O)N[C@@H](CCCNC(=N)N)C(=O)N[C@H](C(=O)N[C@@H](CC(C)C)C(=O)N[C@@H](C)C(=O)N[C@@H](CCCNC(=N)N)C(=O)N[C@H](C(N)=O)C(C)C)[C@@H](C)CC)[C@@H](C)O)[C@@H](C)O)[C@@H](C)CC)[C@@H](C)CC)C(C)C)C(C)C [compound 118] (H-IVLSLDVPIGLLQILLEQERQEAAREQATTNARILARV-NH2; N-terminus assumed) | 100 | 5 | – | –
CC[C@H](C)[C@H](N)C(=O)N[C@H](C(=O)N[C@@H](CC(C)C)C(=O)N[C@@H](CO)C(=O)N[C@@H](CC(C)C)C(=O)N[C@@H](CC(=O)O)C(=O)N[C@H](C(=O)N1CCC[C@H]1C(=O)N[C@H](C(=O)NCC(=O)N[C@@H](CC(C)C)C(=O)N[C@@H](CC(C)C)C(=O)N[C@@H](CCC(N)=O)C(=O)N[C@H](C(=O)N[C@@H](CC(C)C)C(=O)N[C@@H](CC(C)C)C(=O)N[C@@H](CCC(=O)O)C(=O)N[C@@H](CCC(N)=O)C(=O)N[C@@H](CCC(=O)O)C(=O)N[C@@H](CCCNC(=N)N)C(=O)N[C@@H](C)C(=O)N[C@@H](CCCNC(=N)N)C(=O)N[C@@H](C)C(=O)N[C@@H](C)C(=O)N[C@@H](CCCNC(=N)N)C(=O)N[C@@H](CCC(=O)O)C(=O)N[C@@H](CCC(N)=O)C(=O)N[C@@H](C)C(=O)N[C@H](C(=O)N[C@H](C(=O)N[C@@H](CC(N)=O)C(=O)N[C@@H](C)C(=O)N[C@@H](CCCNC(=N)N)C(=O)N[C@H](C(=O)N[C@@H](CC(C)C)C(=O)N[C@@H](C)C(=O)N[C@@H](CCCNC(=N)N)C(=O)N[C@H](C(N)=O)C(C)C)[C@@H](C)CC)[C@@H](C)O)[C@@H](C)O)[C@@H](C)CC)[C@@H](C)CC)C(C)C)C(C)C [compound 119] (H-IVLSLDVPIGLLQILLEQERARAAREQATTNARILARV-NH2; N-terminus assumed) | 95 | 3 | 8.45 | < 7.00
CC[C@H](C)[C@H](N)C(=O)N[C@H](C(=O)N[C@@H](CC(C)C)C(=O)N[C@@H](CO)C(=O)N[C@@H](CC(C)C)C(=O)N[C@@H](CCC(=O)O)C(=O)N[C@H](C(=O)N1CCC[C@H]1C(=O)N[C@H](C(=O)NCC(=O)N[C@@H](CC(C)C)C(=O)N[C@@H](CC(C)C)C(=O)N[C@@H](CCC(N)=O)C(=O)N[C@H](C(=O)N[C@@H](CC(C)C)C(=O)N[C@@H](CC(C)C)C(=O)N[C@@H](CCC(=O)O)C(=O)N[C@@H](CCC(N)=O)C(=O)N[C@@H](C)C(=O)N[C@@H](CCCNC(=N)N)C(=O)N[C@@H](C)C(=O)N[C@@H](CCCNC(=N)N)C(=O)N[C@@H](C)C(=O)N[C@@H](C)C(=O)N[C@@H](CCCNC(=N)N)C(=O)N[C@@H](CCC(=O)O)C(=O)N[C@@H](CCC(N)=O)C(=O)N[C@@H](C)C(=O)N[C@H](C(=O)N[C@H](C(=O)N[C@@H](CC(N)=O)C(=O)N[C@@H](C)C(=O)N[C@@H](CCCNC(=N)N)C(=O)N[C@H](C(=O)N[C@@H](CC(C)C)C(=O)N[C@@H](C)C(=O)N[C@@H](CCCNC(=N)N)C(=O)N[C@H](C(N)=O)C(C)C)[C@@H](C)CC)[C@@H](C)O)[C@@H](C)O)[C@@H](C)CC)[C@@H](C)CC)C(C)C)C(C)C [compound 120] (H-IVLSLEVPIGLLQILLEQARARAAREQATTNARILARV-NH2; N-terminus assumed) | 100 | 7 | 7.16 | ≤ 7.00

— patent publication US6936585B2, “Corticotropin releasing factor 2 receptor agonists” (priority 2002, dated 2005)
